Marks after values point to notes of the source that are not given here.
Key:
[1] = system: Lu01-0414 PDX (SDC4-ROS1); assay: PDX efficacy model LU-01-0414; format: in vivo, mice; details: ROS1 PDX models of FIG. 2A-2C
[2] = target: T1, CYP1A2 (Homo sapiens, UniProt P05177); assay: CYP inhibition; format: in vitro ADME
T1 sequence (P05177 1-516): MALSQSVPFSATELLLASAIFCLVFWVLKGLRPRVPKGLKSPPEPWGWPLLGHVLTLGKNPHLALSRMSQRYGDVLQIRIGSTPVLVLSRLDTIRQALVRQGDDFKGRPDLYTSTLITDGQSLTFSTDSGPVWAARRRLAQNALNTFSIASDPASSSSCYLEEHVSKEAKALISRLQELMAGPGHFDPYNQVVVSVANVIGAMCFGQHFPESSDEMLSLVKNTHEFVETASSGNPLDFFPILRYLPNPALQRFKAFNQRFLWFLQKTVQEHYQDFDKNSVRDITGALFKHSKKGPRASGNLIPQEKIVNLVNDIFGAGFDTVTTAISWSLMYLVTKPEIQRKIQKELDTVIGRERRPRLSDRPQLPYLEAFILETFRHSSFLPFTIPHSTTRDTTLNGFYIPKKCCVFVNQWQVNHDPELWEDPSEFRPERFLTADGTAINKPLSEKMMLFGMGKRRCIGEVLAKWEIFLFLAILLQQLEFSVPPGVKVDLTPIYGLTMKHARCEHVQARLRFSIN

[3] = system: advanced ROS1-positive NSCLC and other advanced ROS1-positive solid tumors; assay: Phase 1/2 clinical study: antitumor activity; format: in vivo, human; details: for tumor change by RECIST 1.1: patient
[4] = Prior Lorlatinib and/or Repotrectinib n = 18
[5] = ROS1 G2032R Resistance Mutation n = 9
[6] = ≥2 Prior ROS1 TKI and ≥1 Chemotherapy n = 17

Question: Which body weight [1] does the source give for CCn1ncc2c1-c1cnc(N)c(c1)O[C@H](C)c1cc(F)ccc1-c1nn(C)nc1C2 [Compound 1, (19R)-3-ethyl-16-fluoro-10,19-dimethyl-20-oxa-3,4,9,10,11,23-hexaazapentacyclo [19.3.1.0^2,^6.0^8,^12.0^13,^18]pentacosa-1 (24),2 (6),4,8,11,13,15,17,21 (25),22-decaen-22-amine] here?
Answer: Its body weight is “No significant changes”.

Question: And the IC50 [2]?
Answer: Its IC50 is greater than 100 µM.

Question: What about the “Best Response NE, patients” value ([3]; All Response-Evaluable n = 21) of the same compound?
Answer: Its value is 19^c.

Question: And the “Best Response PD, patients” value ([3]; All Response-Evaluable n = 21)?
Answer: Its value is 2.

Question: And the “Best Response PR, patients” value ([3]; All Response-Evaluable n = 21)?
Answer: Its value is 10^a.

Question: What about the “Best Response SD, patients” value ([3]; All Response-Evaluable n = 21) of the same compound?
Answer: Its value is 8.

Question: What about the “ORR (RESIST 1.1)” value ([3]; All Response-Evaluable n = 21) of the same compound?
Answer: The value was 48%.

Question: And the “ORR (RESIST 1.1), number of patients” value ([3]; All Response-Evaluable n = 21)?
Answer: The value was 10.

Question: And the “Best Response NE, patients” value ([3]; CNS Disease at Baseline n = 11)?
Answer: Its value is 0.

Question: What about the “Best Response PD, patients” value ([3]; CNS Disease at Baseline n = 11) of the same compound?
Answer: Its value is 1.

Question: And the “Best Response PR, patients” value ([3]; CNS Disease at Baseline n = 11)?
Answer: Its value is 8a.

Question: What about the “Best Response SD, patients” value ([3]; CNS Disease at Baseline n = 11) of the same compound?
Answer: Its value is 2.

Question: And the “ORR (RESIST 1.1)” value ([3]; CNS Disease at Baseline n = 11)?
Answer: The value was 73%.

Question: What about the “ORR (RESIST 1.1), number of patients” value ([3]; CNS Disease at Baseline n = 11) of the same compound?
Answer: Its value is 8.

Question: What about the “tumor change (further disease regression)” value ([3]; EZR-ROS1 G2032R patient, 50 mg, at 16 weeks) of the same compound?
Answer: Its value is −58%.

Question: And the “Best Response NE, patients” value [3, 4]?
Answer: The value was 1c.

Question: And the “Best Response PD, patients” value [3, 4]?
Answer: The value was 1.

Question: What about the “Best Response PR, patients” value [3, 4] of the same compound?
Answer: The value was 9a.

Question: And the “Best Response SD, patients” value [3, 4]?
Answer: Its value is 7.

Question: What about the “ORR (RESIST 1.1)” value [3, 4] of the same compound?
Answer: The value was 50%.

Question: And the “ORR (RESIST 1.1), number of patients” value [3, 4]?
Answer: Its value is 9.

Question: And the “Best Response NE, patients” value [3, 5]?
Answer: Its value is 0.

Question: And the “Best Response PD, patients” value [3, 5]?
Answer: The value was 0.

Question: What about the “Best Response PR, patients” value [3, 5] of the same compound?
Answer: Its value is 7^b.

Question: And the “Best Response SD, patients” value [3, 5]?
Answer: Its value is 2.

Question: And the “ORR (RESIST 1.1)” value [3, 5]?
Answer: The value was 78%.

Question: And the “ORR (RESIST 1.1), number of patients” value [3, 5]?
Answer: The value was 7.

Question: And the “confirmed partial responses (PR)” value ([3]; among 12 efficacy-evaluable patients with ROS1+ NSCLC, 25-75 mg QD)?
Answer: Its value is 6.

Question: And the “median time to response” value ([3]; data as of Sep. 13, 2022)?
Answer: Its value is “about 3.6 weeks”.

Question: And the “response-evaluable patients continuing treatment” value ([3]; data as of Sep. 13, 2022)?
Answer: The value was 76%.

Question: What about the “tumor change, ongoing PR pending confirmation” value ([3]; one patient with ROS1 D2033N) of the same compound?
Answer: Its value is −40%.

Question: What about the “patients with tumor shrinkage” value ([3]; patient subgroup with known ROS1 G2032R resistance mutation) of the same compound?
Answer: The value was 100%.

Question: What about the ORR ([3]; patient subgroup with known ROS1 G2032R resistance mutation, data as of Sep. 13, 2022) of the same compound?
Answer: The ORR was 78%.

Question: What about the “tumor change by RECIST 1.1” value ([3]; CD74-ROS1 G2032R, 25 mg daily, after 4 weeks) of the same compound?
Answer: The value was −31%.

Question: And the “tumor change by RECIST 1.1” value ([3]; CD74-ROS1 G2032R, escalated to 75 mg daily, over 5 months, confirmed PR)?
Answer: Its value is −60%.

Question: What about the “tumor change by RECIST 1.1” value ([3]; EZR-ROS1, 25 mg daily, over 7 months) of the same compound?
Answer: Its value is −48%.

Question: And the “tumor change by RECIST 1.1” value ([3]; EZR-ROS1, no ROS1 resistance mutations, 25 mg daily, week 4)?
Answer: Its value is −33%.

Question: What about the “tumor change by RECIST 1.1” value ([3]; EZR-ROS1 G2032R, 50 mg daily, approximately 5 months, confirmed PR) of the same compound?
Answer: The value was −58%.

Question: And the “tumor change by RECIST 1.1” value ([3]; EZR-ROS1 G2032R, 50 mg daily, week 4)?
Answer: Its value is −38%.

Question: What about the “intracranial PR (patients)” value ([3]; patients with measurable (>10 mm) CNS metastases) of the same compound?
Answer: Its value is 3/3.

Question: And the “median duration of treatment” value ([3]; response-evaluable patients with NSCLC, data as of Sep. 13, 2022)?
Answer: Its value is “about 3.6 months”.

Question: What about the ORR ([3]; response-evaluable patients with any CNS disease, data as of Sep. 13, 2022) of the same compound?
Answer: The ORR was 73%.

Question: What about the “Best Response NE, patients” value [3, 6] of the same compound?
Answer: Its value is 1c.

Question: What about the “Best Response PD, patients” value [3, 6] of the same compound?
Answer: The value was 1.

Question: And the “Best Response PR, patients” value [3, 6]?
Answer: Its value is 9a.

Question: What about the “Best Response SD, patients” value [3, 6] of the same compound?
Answer: Its value is 6.

Question: What about the “ORR (RESIST 1.1)” value [3, 6] of the same compound?
Answer: Its value is 53%.

Question: And the “ORR (RESIST 1.1), number of patients” value [3, 6]?
Answer: Its value is 9.

From US20240398768A1, “METHODS OF TREATING SOLID TUMOR USING HETEROAROMATIC MACROCYCLIC ETHER COMPOUNDS” (Nuvalent, Inc., priority 2021, published 2024)
